Data from patent US20150086557A1, “NOVEL INTEGRIN alpha9 beta1 LIGAND AND USES THEREOF” (OSAKA UNIVERSITY, priority 2012, published 2015).

Assays:
hematopoietic stem cells [1] = test: Proliferation of hematopoietic stem cells on coated plates; assay type: cell-based, mouse
Method: (§1) Bone marrow cells were flushed out from the femurs and tibias of three mice of 6 to 7 weeks of age (C57BL/6J) and dissociated with a 22G needle. The cells were reacted with a biotin-labeled anti-lineage antibody for 30 minutes and subsequently with an anti-blotin antibody-conjugated magnetic beads, and lineage-positive cells were removed by automated magnetic cell sorter autoMACS (Miltenyi Biotec). After staining with PE-CD3, PE-Mac1, PE-Gr1, PE-Ter119, PE-B220, FTTC-Sca1 and APC-c-Kit, a lineage(−) Sca1(+) c-Kit (high) cell fraction was sorted out using FACSAria and used for the experiments described below.
(§2) The above-prepared cells were plated on a 48-well plate coated with a recombinant polydom protein or fibronectin. The same type of plate without coating was used as a control. The medium used was RPMI containing 10% fetal calf serum, thrombopoietin (30 ng/ml) and flt3 ligand (100 ng/ml). For the examination of cell proliferation, the cells were plated in duplicate wells for each coating at 1000 cells/well and started to be cultured, and the cell number was counted at the start of culture, and on day 2 and day 3. The remaining cells were divided into three aliquots, plated in wells for each coating, and subjected to FACS analysis on day 3 after the start of culture. For the FACS analysis, staining with an antibody cocktail containing PE-CD3, PE-Mac1, PE-Gr1, PE-Ter119, PE-B220, FITC-Sca1 and APC-c-Kit was performed and FACSCont was used.
The above-prepared cells were divided into three groups and plated on 48-well plates at 5000 cells/well. The medium used was RPMI containing 10% fetal calf serum, thrombopoietin (30 ng/ml) and flt3 ligand (100 ng/ml). For an EDDMMEVPY peptide treatment group, 2 μl of the peptide was added to each well at the final concentration of 50 μM, and for the other two groups, 2 μl of PBS was added to each well. Then, the culture was performed at […] for 2 hours. Subsequently, the cells were transferred to 48-well plates coated with a recombinant polydom protein or fibronectin. The cells cultured in the presence of the peptide were transferred to the recombinant polydom protein-coated plate, and the cells in one of the other two groups were transferred to the recombinant polydom protein-coated plate, and the cells in the remaining group were transferred to the fibronectin-coated plate. The culture was continued for 3 days and the cell numbers were counted on day 2, day 3 and […].

cardiac stem cells [2] = test: Cell adhesion assay using GFP label-retaining cells (cardiac stem cells); assay type: cell-based, mouse; conditions: 100 nM coating, 12 hours, serum-free IMDM, FIG. 25
From the text: (§3) Tissue stem cells are known to generally have a very prolonged, cell cycle and thus allow labeling compounds incorporated into DNA and the cell interior to remain stable for a long period of time without decay along with cell division, This nature can be advantageously used to identify and separate tissue stem cells by short-term labeling or cells with a nucleotide analog such as bromodeoxyuridine (BrdU) or a fusion protein of green fluorescent protein (hereinafter referred to as “GFP”) and a nucleoprotein, histone, followed by selection of cells retaining the label for a long period of time (label-retaining cells). In this experiment, with the use of a tetracycline-inducible expression system in combination with the ROSA26 promoter, a fusion protein of GFP and histone H2B (H2B-GFP) was expressed in the heart of a mouse for 2 weeks starting 1 week before birth, and 6 weeks later, cardiac stem cells were separated as GFP label-retaining cells from the heart.
To explore whether polydom serves as a scaffold for integrin α9β1-expressing cardiac stem cells, cardiac stem cells were separated as GFP label-retaining cells and subjected to a cell adhesion assay. A 96-well immuno plate (Nunc Maxisorp) was coated with 50 μl/well of 100 nM polydom or fibronectin at 4° C. overnight, GFP label-retaining cells were collected by FACSAria and suspended at 1×10^6 cells/ml in serum-free Iscove's Modified Dulbecco Medium (hereinafter referred to as “IMDM”). The cell suspension was plated at 100 μl/well and cultured in a 5% CO2 incubator at 37° C. for 12 hours. After three washes with PBS, the cells were fixed with 100 μl/well of 3.7% formalin for 15 minutes. Then, the cells were incubated with 0.5% toluidine blue (150 μl/well) for 10 minutes and washed with MilliQ water. After drying, the number of attached cells was counted under a microscope.

cardiac stem cells [3] = test: Colony forming ability of GFP label-retaining cells (cardiac stem cells); assay type: cell-based, mouse; conditions: 100 nM coating, 1×10^4 cells/well, 2 weeks, FIG. 26
From the text: as §3
To explore whether cardiac stem cells proliferate on a polydom-coated plate, colony formation was measured, as an indicator of proliferation. A Falcon 6-well plate was coated with 800 μl/well of 100 nM polydom or fibronectin at 4° C. overnight. GFP label-retaining cells were collected by FACSAria and suspended in IMDM containing 10% fetal calf serum. […] After drying, the number of colonies was counted under a microscope.

hematopoietic stem cells [4] = test: FACS analysis of differentiation of hematopoietic stem cells on coated wells; assay type: cell-based, mouse; conditions: day 3 of culture on coated well, FIG. 19
Method: as §1, §2

integrin α9β1 = target: T1, integrin α9β1 (Homo sapiens, UniProt P05556+Q13797); test: Integrin α9β1-pol-C binding inhibition assay with synthetic peptides; conditions: integrin α9β1 10 nM, pol-C 10 nM, 1 mM MnCl2, 10% DMSO, FIG. 15
T1 construct: A cDNA encoding the extracellular region of human integrin α9; An expression vector for the extracellular region of integrin β1; ACID coiled-coil (Velcro) peptide; FLAG; BASE coiled-coil (Velcro) peptide; made in house; host or cells: FreeStyle 293 Expression System (293-F cells)
Method: An integrin binding assay was performed as described in the above-mentioned publication Matrix Biol. 25, […], (2006). In some experiments, integrins were preincubated with synthetic peptides at various concentrations to evaluate the inhibitory activities of the synthetic peptides. The apparent dissociation constants were determined as described in Nishiuchi, R., Murayama, O., Fujiwara, H., Gu, J., Kawakami. T., Aimoto, S., Wada, Y., and Sekiguchi, K. (2003) J. Biochem, 134, 497-504.
To further corroborate the role of EDDMMEVPY as the integrin α9β1 recognition sequence, an integrin α9β1-pol-C binding inhibition assay was performed using synthetic peptides consisting of the EDDMMEVPY sequence or a part of the sequence, Integrin α9β1 (10 nM) was incubated on microtiter plates coated with pol-C (10 nM) in the presence of 1 mM MnCl2 and various concentrations of the synthetic peptides. To prevent precipitation of the peptides, the assay was performed in the presence of 10% DMSO. Based on the amount of integrin α9β1 bound to pol-C set as 100%, the relative binding amount was calculated.

[5] = target: integrin α9β1 on RD cells (human rhabdomyosarcoma cells) (human) (UniProt Q13797); test: cell-based or functional assay
integrin α9β1 on RD cells (human rhabdomyosarcoma cells) (human), sequence (Q13797 30-1035, chain 1 of 2): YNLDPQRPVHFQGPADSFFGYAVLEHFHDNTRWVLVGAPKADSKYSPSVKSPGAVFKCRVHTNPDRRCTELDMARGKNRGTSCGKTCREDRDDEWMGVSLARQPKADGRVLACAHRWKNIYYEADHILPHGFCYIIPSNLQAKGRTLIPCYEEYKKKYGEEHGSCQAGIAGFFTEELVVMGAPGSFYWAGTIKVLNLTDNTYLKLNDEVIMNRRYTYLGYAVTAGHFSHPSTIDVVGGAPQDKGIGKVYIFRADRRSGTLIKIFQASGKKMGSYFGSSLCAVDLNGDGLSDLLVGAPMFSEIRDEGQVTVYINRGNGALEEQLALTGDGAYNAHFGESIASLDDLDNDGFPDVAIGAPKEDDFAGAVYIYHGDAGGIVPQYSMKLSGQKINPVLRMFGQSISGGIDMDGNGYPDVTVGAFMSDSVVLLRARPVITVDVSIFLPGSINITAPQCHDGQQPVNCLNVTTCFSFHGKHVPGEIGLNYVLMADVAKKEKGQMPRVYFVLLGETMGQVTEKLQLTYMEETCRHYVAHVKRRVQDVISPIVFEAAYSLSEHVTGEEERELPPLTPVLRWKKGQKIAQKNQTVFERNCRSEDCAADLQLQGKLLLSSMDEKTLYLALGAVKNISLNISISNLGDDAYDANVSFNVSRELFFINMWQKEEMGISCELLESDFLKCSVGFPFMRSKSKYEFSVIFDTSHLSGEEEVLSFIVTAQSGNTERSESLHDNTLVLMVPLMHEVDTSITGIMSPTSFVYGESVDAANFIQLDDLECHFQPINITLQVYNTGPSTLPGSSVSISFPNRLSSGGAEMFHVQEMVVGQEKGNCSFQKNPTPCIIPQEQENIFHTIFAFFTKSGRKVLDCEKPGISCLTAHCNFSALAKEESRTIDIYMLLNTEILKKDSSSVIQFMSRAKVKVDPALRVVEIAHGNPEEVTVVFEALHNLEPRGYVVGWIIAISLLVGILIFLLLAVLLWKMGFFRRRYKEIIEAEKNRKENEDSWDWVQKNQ
integrin α9β1 on RD cells (human rhabdomyosarcoma cells) (human), sequence (P05556 21-798, chain 2 of 2, further chain): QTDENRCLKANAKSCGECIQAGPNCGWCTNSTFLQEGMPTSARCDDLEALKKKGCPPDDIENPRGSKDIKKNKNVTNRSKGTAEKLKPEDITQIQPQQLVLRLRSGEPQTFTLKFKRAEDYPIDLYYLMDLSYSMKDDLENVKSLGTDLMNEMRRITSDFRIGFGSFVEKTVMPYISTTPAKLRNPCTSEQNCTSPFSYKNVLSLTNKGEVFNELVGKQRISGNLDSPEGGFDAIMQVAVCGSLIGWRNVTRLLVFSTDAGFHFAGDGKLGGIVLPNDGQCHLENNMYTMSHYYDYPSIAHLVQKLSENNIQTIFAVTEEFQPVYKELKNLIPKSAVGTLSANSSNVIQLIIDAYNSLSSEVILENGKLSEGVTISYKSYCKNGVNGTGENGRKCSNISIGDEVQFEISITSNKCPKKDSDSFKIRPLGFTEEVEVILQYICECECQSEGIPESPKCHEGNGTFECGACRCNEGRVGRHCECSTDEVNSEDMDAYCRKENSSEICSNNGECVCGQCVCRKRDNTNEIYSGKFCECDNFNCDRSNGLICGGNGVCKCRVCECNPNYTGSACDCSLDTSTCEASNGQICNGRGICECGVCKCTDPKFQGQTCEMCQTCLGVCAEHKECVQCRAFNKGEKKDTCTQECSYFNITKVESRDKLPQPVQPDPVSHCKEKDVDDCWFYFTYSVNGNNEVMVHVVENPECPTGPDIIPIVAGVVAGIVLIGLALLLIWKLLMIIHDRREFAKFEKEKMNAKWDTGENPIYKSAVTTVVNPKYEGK

T1 sequence (Q13797 30-981 limits assumed): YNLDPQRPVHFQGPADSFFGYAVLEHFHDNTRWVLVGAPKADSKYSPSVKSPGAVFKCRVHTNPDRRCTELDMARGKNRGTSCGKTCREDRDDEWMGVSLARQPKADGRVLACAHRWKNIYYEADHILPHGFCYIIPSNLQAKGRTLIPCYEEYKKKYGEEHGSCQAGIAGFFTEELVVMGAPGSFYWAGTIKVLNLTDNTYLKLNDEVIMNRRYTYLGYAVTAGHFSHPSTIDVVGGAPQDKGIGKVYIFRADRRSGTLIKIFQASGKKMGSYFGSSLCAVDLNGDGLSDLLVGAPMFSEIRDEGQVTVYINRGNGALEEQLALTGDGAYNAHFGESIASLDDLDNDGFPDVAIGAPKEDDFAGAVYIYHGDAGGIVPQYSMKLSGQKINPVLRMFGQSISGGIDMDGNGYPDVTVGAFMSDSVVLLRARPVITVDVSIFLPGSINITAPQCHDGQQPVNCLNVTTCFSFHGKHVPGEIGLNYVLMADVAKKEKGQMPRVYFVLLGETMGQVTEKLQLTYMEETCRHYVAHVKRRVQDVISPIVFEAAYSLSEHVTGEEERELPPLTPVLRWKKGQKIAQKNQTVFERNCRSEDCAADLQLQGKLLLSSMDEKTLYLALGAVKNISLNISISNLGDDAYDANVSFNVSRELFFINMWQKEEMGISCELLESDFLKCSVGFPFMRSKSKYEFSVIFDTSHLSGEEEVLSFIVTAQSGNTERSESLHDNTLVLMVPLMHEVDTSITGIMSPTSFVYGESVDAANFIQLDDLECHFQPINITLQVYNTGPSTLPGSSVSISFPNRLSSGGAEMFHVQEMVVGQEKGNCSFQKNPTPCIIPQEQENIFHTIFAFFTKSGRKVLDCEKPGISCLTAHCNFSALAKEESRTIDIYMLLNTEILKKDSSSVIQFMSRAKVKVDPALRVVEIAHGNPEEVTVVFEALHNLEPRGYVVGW
T1 sequence (P05556 21-728 limits assumed): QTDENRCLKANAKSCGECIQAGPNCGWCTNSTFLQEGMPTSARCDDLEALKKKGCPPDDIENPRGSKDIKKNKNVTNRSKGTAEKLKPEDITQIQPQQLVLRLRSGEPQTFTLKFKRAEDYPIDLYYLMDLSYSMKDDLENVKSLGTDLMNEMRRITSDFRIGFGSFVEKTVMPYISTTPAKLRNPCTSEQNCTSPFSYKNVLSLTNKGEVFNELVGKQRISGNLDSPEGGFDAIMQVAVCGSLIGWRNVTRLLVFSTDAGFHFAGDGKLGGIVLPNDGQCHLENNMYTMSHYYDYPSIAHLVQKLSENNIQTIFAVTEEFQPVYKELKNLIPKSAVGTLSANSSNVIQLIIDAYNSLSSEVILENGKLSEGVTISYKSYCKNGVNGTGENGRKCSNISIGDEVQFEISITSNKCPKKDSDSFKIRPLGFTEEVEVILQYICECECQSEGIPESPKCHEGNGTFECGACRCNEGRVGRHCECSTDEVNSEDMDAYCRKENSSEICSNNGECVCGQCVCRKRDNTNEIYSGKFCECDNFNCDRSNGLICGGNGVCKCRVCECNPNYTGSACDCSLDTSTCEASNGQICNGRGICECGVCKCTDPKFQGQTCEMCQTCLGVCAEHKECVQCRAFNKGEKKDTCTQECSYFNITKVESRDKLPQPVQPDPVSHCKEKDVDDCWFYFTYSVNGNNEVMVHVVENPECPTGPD

Question: With fibronectin [reference compound] as the substance, how does the “proliferation of hematopoietic stem cells on coated wells” value (hematopoietic stem cells [1]; 1000 cells/well, counted to day 3, versus uncoated control, FIG. 18) read?
Answer: proliferated as with the control

Question: What about the “proliferation of hematopoietic stem cells on coated plate after PBS pretreatment” value (hematopoietic stem cells [1]; 5000 cells/well, counted day 2 to day 4, FIG. 20) of the same substance?
Answer: proliferated

Question: And the “adhesion of cardiac stem cells to coated plate” value (cardiac stem cells [2])?
Answer: a large number of the cells adhered

Question: And the “colony forming activity (colony count relative to the number of cells plated)” value (cardiac stem cells [3])?
Answer: about 0.4%

Question: And the “expression of c-Kit on hematopoietic stem cells” value (hematopoietic stem cells [4])?
Answer: increased expression of c-Kit

Question: How did the “inhibitory potency toward binding of integrin α9β1 to pol-C” value (integrin α9β1) turn out when TYSSPEDGIHE [reference compound] was run?
Answer: barely inhibitory

Question: “full-length polydom (recombinant mouse SVEP1) (from UniProt A2AVA0 18-3567) (ligand)” was tested. Which adhesion of RD cells to coated full-length polydom [5] did it give?
Answer: 3 µg/mL

Question: With DMMEVPY as the substance, how does the “inhibitory potency toward binding of integrin α9β1 to pol-C” value (integrin α9β1) read?
Answer: nearly as potent as EDDMMEVPY
